Publication PMC12018048, “Intranasal kisspeptin administration rapidly stimulates gonadotropin release in humans” (eBioMedicine, 2025)
Several values for one entry are separate records, joined by “and”; a condition that tells them apart may be missing. Equal entries are not always repeated.

Experiments:
[1] = tested on: serum LH, FSH and testosterone; assay: Intranasal kisspeptin-54, reproductive hormone profiles in healthy men; format: in vivo, human; conditions: N = 12; for AUC of the change in serum LH / AUC of the change in serum testosterone / AUC of the change in serum FSH: 4 h sampling; for AUC of the change in serum LH / AUC of the change in serum testosterone / Max increase from baseline in serum testosterone / Maximum increase from baseline in serum FSH / Maximum increase from baseline in serum LH / AUC of the change in serum FSH: mean ± SEM; for Serum FSH over the sampling period, mean difference vs placebo / Serum LH over the sampling period, mean difference vs placebo: 4 h time profile
Description: (§1) This was a randomised, double-blinded, crossover, placebo-controlled clinical study (Fig. 1, Fig. 2, Fig. 3a). Participants were admitted to the Clinical Research Unit (Imperial College Healthcare NHS Trust) and completed five (in healthy men) or two (in healthy women and patients with HA) study visits. […] Study visits in healthy women were conducted in the follicular phase of the menstrual cycle (i.e., days 2–10 inclusive) to control for changes in reproductive hormones over the course of the cycle and were conducted across two different menstrual cycles to allow washout.
(§2) All studies commenced at 08:00 to control for circadian hormonal changes. Participants were instructed to abstain from alcohol, caffeine, and sexual activities from 22:00 preceding each study visit. On arrival, an intravenous cannula was inserted into one antecubital fossa, and blood was sampled at timepoints −30, −15, and 0 min, before intranasal administration of kisspeptin-54 or 0.9% saline (placebo). Following participant education (described below), healthy men self-administered the following 5 interventions under supervision in random order via the intranasal route: 3.2, 6.4, 12.8, and 25.6 nmol/kg of kisspeptin-54, or placebo. Healthy women and patients with HA attended for the same protocol comparing 12.8 nmol/kg of kisspeptin-54 and placebo in random order. After administration of kisspeptin-54 or placebo at timepoint 0 min, serum levels of LH, FSH, and testosterone (in men), or oestradiol and progesterone (in women) were measured every 15 min for 4 h. Heart rate, blood pressure, and the presence of adverse symptoms were recorded every 15 min.
(§3) Kisspeptin-54 or placebo was self-administered using nasal spray devices that delivered a single volume of 100 μL per actuation (SP270+ pump, 3959 actuator, 5 mL SGD U-Save glass bottles provided by Nemera, La Verpillière, France). The kisspeptin-54 nasal spray solution formulations were prepared by reconstituting kisspeptin-54 powder stored in sterile vials on the morning of each study visit to produce a solution containing the target dose according to body weight in 400 μL.
(§4) Participants were familiarised with the procedure of intranasal application and were provided with written administration instructions ahead of each study visit, as described in.[38] In addition, participants received a 5-min training session using a dummy nasal spray device before starting the study to ensure good technique, which all participants easily understood. Under instruction and supervision from the clinical team, participants primed the nasal sprays then self-administered a total of four sprays of kisspeptin-54 or placebo per visit (i.e., 4 × 100 μL), alternating between nostrils and leaving 60 s between sprays, to allow satisfactory dissipation and avoid solution running out of the nostrils. Nasal sprays containing kisspeptin or placebo were identical in appearance, volume, and administration technique.
(§5) Blood samples were collected to measure serum reproductive hormone levels at the timepoints depicted in Fig. 1, Fig. 2, Fig. 3a. Serum samples were stored at −20 °C until analysis. Serum LH, FSH, testosterone (in men), and oestradiol and progesterone (in women) were measured using automated chemiluminescent immunoassays (Abbott Diagnostics, Maidenhead, UK: LH catalogue # 2P40-25, FSH catalogue # 7K75-25, testosterone catalogue # 07K7320, oestradiol catalogue # 7K72-25, progesterone catalogue # 7K77-25). Reference ranges: LH in international units per litre (IU/L), 2–12 (men), 2–10 (follicular), 20–60 (mid-cycle), 4–14 (luteal); FSH in IU/L, 1.7–8 (men), 1.5–8.0 (follicular and luteal), 10–50 (mid-cycle); in men: testosterone in nanomoles per litre (nmol/L), 10–30; and in women: oestradiol in picomoles per litre (pmol/L), <300 (early follicular), 400–1500 (mid-cycle), 200–1000 (luteal) and progesterone in nmol/L, <5.0 (follicular), 3.5–67 (luteal). […]

[2] = tested on: serum LH, FSH, oestradiol and progesterone; assay: Intranasal kisspeptin-54, reproductive hormone profiles in patients with hypothalamic amenorrhoea; format: in vivo, human
Description: as §1, §2, §3, §4, §5

[3] = Safety assessments in healthy participants and patients (adverse events, blood pressure, heart rate); format: in vivo, human; conditions: intranasal; for Side effects or adverse events (of any severity): all participants in all study groups (healthy men, healthy women, patients with HA)
Description: as §2
The primary outcome measure was change in serum LH following intranasal administration of kisspeptin compared to placebo. The secondary outcome measures were changes in serum FSH, as well as testosterone [in men], and oestradiol and progesterone [in women] following intranasal administration of kisspeptin compared to placebo. In addition, safety assessments were performed that included adverse event recording, blood pressure, and heart rate measurements.

LH = conditions: mice, intraperitoneal route, 1 nM; cited from earlier work
[4] = intranasal 3.2 nmol/kg vs placebo
[5] = intranasal 6.4 nmol/kg vs placebo
[6] = intranasal 6.4 nmol/kg, two-way ANOVA
[7] = intranasal 12.8 nmol/kg vs placebo
[8] = intranasal 12.8 nmol/kg, two-way ANOVA
[9] = intranasal 25.6 nmol/kg vs placebo
[10] = intranasal 12.8 nmol/kg, N = 10 (HA) and N = 12 (healthy women)
[11] = intranasal 12.8 nmol/kg, unpaired t-test, N = 10 (HA) and N = 12 (healthy women)
[12] = patients with HA, intranasal 12.8 nmol/kg vs placebo, paired t-test, N = 10
[13] = patients with HA, intranasal 12.8 nmol/kg, two-way ANOVA, 4 h time profile, N = 10
[14] = patients with hypothalamic amenorrhoea, intranasal 12.8 nmol/kg, 4 h sampling, mean ± SEM, N = 10
[15] = patients with hypothalamic amenorrhoea, intranasal 12.8 nmol/kg, mean ± SEM, N = 10

Substance: Kisspeptin-54
- FSH AUC, mean difference vs placebo [1, 4]: 47.2 h·IU/L
- FSH maximum increase, mean difference vs placebo [1, 4]: 0.2 IU/L
- LH AUC, mean difference vs placebo [1, 4]: 197.6 h·IU/L
- LH maximum increase, mean difference vs placebo [1, 4]: 1.1 IU/L
- Testosterone AUC, mean difference vs placebo [1, 4]: 457.4 nmol·h/L
- Testosterone max increase, mean difference vs placebo [1, 4]: 1.5 nmol/L
- AUC of the change in serum LH ([1]; intranasal 3.2 nmol/kg): 172.2 ± 64.2 h·IU/L
- AUC of the change in serum testosterone ([1]; intranasal 3.2 nmol/kg): 273.6 ± 158.7 nmol·h/L
- Max increase from baseline in serum testosterone ([1]; intranasal 3.2 nmol/kg): 4.0 ± 1.0 nmol/L
- Maximum increase from baseline in serum FSH ([1]; intranasal 3.2 nmol/kg): 0.3 ± 0.1 IU/L
- Maximum increase from baseline in serum LH ([1]; intranasal 3.2 nmol/kg): 2.5 ± 0.3 IU/L
- FSH AUC, mean difference vs placebo [1, 5]: 97.6 h·IU/L
- FSH maximum increase, mean difference vs placebo [1, 5]: 0.4 IU/L
- LH AUC, mean difference vs placebo [1, 5]: 325.5 h·IU/L
- LH maximum increase, mean difference vs placebo [1, 5]: 1.7 IU/L
- Testosterone AUC, mean difference vs placebo [1, 5]: 329.7 nmol·h/L
- Testosterone max increase, mean difference vs placebo [1, 5]: 0.9 nmol/L
- AUC of the change in serum FSH ([1]; intranasal 6.4 nmol/kg): 37.3 ± 16.2 h·IU/L
- AUC of the change in serum LH ([1]; intranasal 6.4 nmol/kg): 300.2 ± 79.2 h·IU/L
- AUC of the change in serum testosterone ([1]; intranasal 6.4 nmol/kg): 145.9 ± 158.5 nmol·h/L
- Max increase from baseline in serum testosterone ([1]; intranasal 6.4 nmol/kg): 3.4 ± 0.8 nmol/L
- Maximum increase from baseline in serum FSH ([1]; intranasal 6.4 nmol/kg): 0.4 ± 0.1 IU/L
- Serum FSH over the sampling period, mean difference vs placebo [1, 6]: 0.4 IU/L
- Serum LH over the sampling period, mean difference vs placebo [1, 6]: 1.3 IU/L
- FSH AUC, mean difference vs placebo [1, 7]: 156.6 h·IU/L
- FSH maximum increase, mean difference vs placebo [1, 7]: 0.7 IU/L
- LH AUC, mean difference vs placebo [1, 7]: 621.1 h·IU/L
- LH maximum increase, mean difference vs placebo [1, 7]: 3.1 IU/L
- Testosterone AUC, mean difference vs placebo [1, 7]: 654.3 nmol·h/L
- Testosterone max increase, mean difference vs placebo [1, 7]: 2.4 nmol/L
- AUC of the change in serum FSH ([1]; intranasal 12.8 nmol/kg): 96.3 ± 23.2 h·IU/L
- AUC of the change in serum LH ([1]; intranasal 12.8 nmol/kg): 595.7 ± 98.3 h·IU/L
- AUC of the change in serum testosterone ([1]; intranasal 12.8 nmol/kg): 470.4 ± 144.0 nmol·h/L
- Time of maximal increase in serum testosterone ([1]; intranasal 12.8 nmol/kg): 150 min
- Max increase from baseline in serum testosterone ([1]; intranasal 12.8 nmol/kg): 4.9 ± 0.7 nmol/L
- Maximum increase from baseline in serum FSH ([1]; intranasal 12.8 nmol/kg): 0.7 ± 0.2 IU/L
- Maximum increase from baseline in serum LH ([1]; intranasal 12.8 nmol/kg): 4.45 IU/L and 4.4 ± 0.6 IU/L
- Serum FSH over the sampling period, mean difference vs placebo [1, 8]: 0.6 IU/L
- Serum LH over the sampling period, mean difference vs placebo [1, 8]: 2.5 IU/L
- Serum testosterone, mean difference vs placebo at peak levels from 120 min [1, 8]: 1.91 nmol/L
- FSH AUC, mean difference vs placebo [1, 9]: 147.6 h·IU/L
- FSH maximum increase, mean difference vs placebo [1, 9]: 0.7 IU/L
- LH AUC, mean difference vs placebo [1, 9]: 574.4 h·IU/L
- LH maximum increase, mean difference vs placebo [1, 9]: 2.9 IU/L
- Testosterone AUC, mean difference vs placebo [1, 9]: 630.3 nmol·h/L
- Testosterone max increase, mean difference vs placebo [1, 9]: 3.1 nmol/L
- AUC of the change in serum FSH ([1]; intranasal 25.6 nmol/kg): 87.3 ± 66.2 h·IU/L
- AUC of the change in serum LH ([1]; intranasal 25.6 nmol/kg): 549.0 ± 108.6 h·IU/L
- AUC of the change in serum testosterone ([1]; intranasal 25.6 nmol/kg): 446.5 ± 287.4 nmol·h/L
- Max increase from baseline in serum testosterone ([1]; intranasal 25.6 nmol/kg): 5.6 ± 1.6 nmol/L
- Maximum increase from baseline in serum FSH ([1]; intranasal 25.6 nmol/kg): 0.8 ± 0.3 IU/L
- Maximum increase from baseline in serum LH ([1]; intranasal 25.6 nmol/kg): 4.3 ± 0.6 IU/L
- Serum LH over the sampling period, mean difference vs placebo ([1]; intranasal 25.6 nmol/kg, two-way ANOVA): 2.3 IU/L
- Time of peak stimulation of serum LH after administration ([1]; intranasal 3.2-25.6 nmol/kg): 30 to 45 min
- Maximal FSH increase, patients with HA relative to healthy women [2, 10]: over 10 fold
- Maximal LH increase, patients with HA relative to healthy women [2, 10]: over 3 fold
- Maximal FSH increase, mean difference patients with HA vs healthy women [2, 11]: 2.77 IU/L
- Maximal LH increase, mean difference patients with HA vs healthy women [2, 11]: 2.95 IU/L
- FSH AUC, mean difference vs placebo [2, 12]: 580.0 h·IU/L
- FSH maximum increase, mean difference vs placebo [2, 12]: 3.1 IU/L
- LH AUC, mean difference vs placebo [2, 12]: 756.9 h·IU/L
- LH maximum increase, mean difference vs placebo [2, 12]: 4.3 IU/L
- Time of maximal stimulation of serum LH post-administration ([2]; patients with HA, intranasal 12.8 nmol/kg, N = 10): 30 to 45 min
- Effect on circulating oestradiol and progesterone levels ([2]; patients with HA, intranasal 12.8 nmol/kg, acute 4-h time-course, N = 10): no significant effects
- Serum FSH over time, mean difference vs placebo [2, 13]: 2.35 IU/L
- Serum LH over time, mean difference vs placebo [2, 13]: 3.0 IU/L
- AUC of the change in serum FSH [2, 14]: 474.9 ± 237.3 h·IU/L
- AUC of the change in serum LH [2, 14]: 600.6 ± 146.7 h·IU/L
- Maximum increase from baseline in serum FSH [2, 15]: 3.1 ± 0.3 IU/L
- Maximum increase from baseline in serum LH [2, 15]: 4.4 ± 0.2 IU/L
- Side effects or adverse events (of any severity) [3]: without any side effects or adverse events
- Side effects or adverse events (of any severity) ([3]; listed as kisspeptin): no side effects or adverse events
- Effect on blood pressure or heart rate measurements ([3]; any of the doses administered, recorded every 15 min): no effect
- Effect on LH (LH): robustly increases LH
